Data set [1] addresses T1, HCMV DNA polymerase (UL54) (Human cytomegalovirus, UniProt P08546).
T1 construct: 6His (C); made in house; host or cells: Sf9 insect cells (baculovirus, pFastBac)
Kind of data set: HCMV DNA polymerase enzyme inhibition assay (ProFoldin, fluorescence). Format: biochemical. The conditions noted are these: 37° C., duplicate, max 40 μM. The method, then:
The HCMV DNA polymerase assay was developed by ProFoldin. The assay detects the formation of DNA from the DNA polymerase reaction in the presence of a DNA template, dATP and dGTP. The formation of the DNA is detected by using a fluorescence method. The fluorescence intensity increases when DNA is generated by the enzyme reaction.
A time-course experiment was performed aside the enzyme inhibition assay to ensure the assay was sensitive to the enzyme inhibition. The wells for the time-course experiment contained 1 μL of DMSO and the same reaction mixture as that in the enzyme inhibition assay. The time-course data varied between plates. The reactions were stopped when the fluorescence reached a value of about 3700 for each plate.
Exemplary solid compounds (e.g., as described herein) were dissolved in DMSO to make […] stock solutions. PFA (phosphonoformic acid or phosphonomethanoic acid) was used as a positive control. The compound mother plates were prepared at 50× concentrated compound concentrations with a 2-fold serial dilution. All the exemplary compounds except PFA were diluted in DMSO. PFA was diluted in water. The maximum compound concentration was 2 mM that gave the final concentration of 40 μM in the assay. One microliter of the 50× stock solutions was transferred into the assay plates. Three copies of assay plates were prepared, two for HCMV DNA polymerase assay and one for compound background control.
The following is the protocol for enzyme inhibition performed at 37° C.:
1. Prepared a premix composed of 35347 μL of H2O, 5220 μL of 10× assay buffer and 149 μL of 350×HCMV DNA polymerase.
2. Added 39 μL of the premix into the wells with 1 μL of the compound. Incubated the mixture for at least 5 min.
3. Added 10 μL of 5×dNTP (0.1 mM), 5×DNA template solutions into each well and incubated the solution until the fluorescence value reached a value about 3700 for the DMSO-only control wells.
4. Added 50 μL of the 1× dye into the wells.
5. Read the fluorescence at emission wavelength of 535 nm and excitation wavelength of 485 nm.
For the compound background reading, added 99 μL of water in the wells with 1 μL of compounds and read the fluorescence. […] The 0% inhibition value F0 was from the wells with DMSO (no inhibitor).
The background values were subtracted from the fluorescence reading to get the net fluorescence values. The net fluorescence values were used for calculation of the percentage inhibition.
The assay was performed in duplicate for the test article at […], 1.25, 0.625, 0.313, 0.156 and 0.078 μM. The IC50 curves were obtained by fitting the percentage inhibition values with the compound concentrations using Prism GraphPad software.

The nature of data set [2]: Cytotoxicity in MRC5 cells without virus infection (CCK8). Format: cell-based. Particulars: human. The method, then: (§1) Exemplary compounds (e.g., as described herein) were prepared as 20 mM stock solutions with DMSO. Reference compound was ganciclovir (Sigma). Compounds were tested at 8 concentrations, 3-fold serial dilutions, in duplicate for EC50 and CC50 determinations. The highest testing concentrations of the exemplary compounds and reference compound were 40 μM and 100 μM, respectively. The final concentration of DMSO in the cell culture was 0.5%.
(§2) MRC5 cells (ATCC CCL-171) was obtained from the ATCC and maintained in the EMEM (Sigma) supplemented with 10% FBS (HyClone), 1% L-glutamine (Gibco), 1% NEAA (Gibco), and 1% PS (Hyclone). Reagent:
Cytotoxicity of the compounds was assessed under the same conditions, but without virus infection, in parallel. Cell viability was measured with CCK8 following the manufacturer's manual. CC50 values were then calculated based on cytotoxicity at the test concentrations normalized by the medium control (medium only).
(§3) Antiviral activity and cytotoxicity of the compounds were expressed as % Inhibition and % Viability, respectively, and calculated with the formulas below:
Viability (%)=(Raw dataCPD−AverageMC)/(AverageCC−AverageMC)*100
(§4) Raw dataCPD indicates the values of the compound-treated wells; AverageVC, AverageCC and AverageMC indicate the average values of the virus control (cells infected with virus, without compound treatment), cell control and medium control wells, respectively.
(§5) EC50 and CC50 values were calculated using the GraphPad Prism software.

Data set [3] deals with T2, hERG potassium channel (Homo sapiens, UniProt Q12809).
T2 construct: host or cells: CHO cells stably expressing hERG
Kind of data set: Inhibition of hERG potassium channel, automated patch clamp (SyncroPatch 384PE) in CHO cells. The data set is classed as cell-based. Particulars: CHO cells stably expressing hERG, room temperature, 0.494-40.00 μM; read-out: CHO-hERG Activity Range. As for the experimental part: This automated patch clamp method (SyncroPatch 384PE) CHO cells stably expressing hERG potassium channels from Sophion Biosciences were used for this test.
The cells were cultured in a humidified and air-controlled (5% C02) incubator at 37° C.
The CHO cells which were at least two days after plating and more than 75% confluent would be used for experiments. Before testing, cells were harvested using TrypLE and resuspended in the physiological solution at the room temperature.
For the electrophysiological recordings the following solutions were used (Table 5). The physiological solution and external solution were prepared at least one month. The intracellular solution was prepared in batches aliquoted, and stored at 4° C. until used.
Exemplary compounds (e.g., as described herein) were dissolved in 100% DMSO to obtain stock solutions for different test concentrations. Then the stock solutions were further diluted into external solution to achieve final concentrations for testing. Visual check for precipitation was conducted before testing. Final DMSO concentration in external solution was not more than 0.30% for the compounds.
From this holding potential of −80 mV, the voltage was first stepped to −50 mV for 80 ms for leak subtraction, and then stepped to +20 mV for 4800 ms to open hERG channels. After that, the voltage was stepped back down to −50 mV for 5000 ms, causing a “rebound” or tail current, which was measured and collected for data analysis. Finally, the voltage was stepped back to the holding potential (−80 mV, 1000 ms). This voltage command protocol was repeated every 20000 msec. This command protocol was performed continuously during the test (vehicle control and test compound).
hERG SyncroPatch assay was conducted at room temperature. The Setup, Prime Chip, Catch and Seal Cells, Amplifier Settings, Voltage and Application Protocols were established with Biomek Software (Nanion).
One addition of 40 μL of the vehicle was applied, followed by 300s for a baseline period. Then the doses of exemplary test compounds were added with 40 μL. The exposure of test compound at each concentration was no less than 300s. […] Five concentrations (0.494 μM, 1.48 μM, 4.44 μM, 13.33 μM and 40.00 μM) were tested for each compound. Minimum 2 replicates per concentration were obtained.
Within each well recording, percent of control values were calculated for each test compound concentration current response based on peak current in presence of reference control (current response/peak current)×100%. The Dose-Response curves were fit to the standard Hill equation as shown below:
Ipost cpd/Ipre cpd=Bottom+(Top−Bottom)/(1+10^((Log IC50−X)*HillSlope))
Where X is the logarithm of concentration, Ipost cpd/Ipre cpd is the normalized peak current amplitude, Top is 1 and Bottom is equal to 0.
Curve-fitting and IC50 calculations were performed by GraphPad Prism 5.0. If the inhibition obtained at the lowest concentration tested was over 50%, or at the highest concentration tested was less than 50%, we reported the IC50 as less than lowest concentration, or higher than highest concentration, respectively.

Data set [4] concerns HCMV US3-6-EGFP-HCMV-AD169 strain. Put plainly: In vitro inhibitory (antiviral) activity against HCMV, GFP reporter in MRC5 cells. Format: cell-based, Human cytomegalovirus (HCMV). The conditions noted are these: Human betaherpesvirus 5, AD169, MRC5, 96 h, read-out: HCMV Antiviral EC50 range. The method, then: as §1
HCMV US3-6-EGFP-HCMV-AD169 strain was obtained from Institute Pasteur of Shanghai, CAS. The virus contains GFP as a reporter of the viral replication.
as §2
In 96-well plates, MRC5 cells were seeded at 20,000 cells per well and cultured at 37° C. and 5% C02 overnight. Next day, compounds (8 concentrations, 3-fold dilutions, in duplicate) and US3-6-EGFP-HCMV-AD169 (MOI=0.1) were added to the cells. The resulting cultures were incubated at 37° C. and 5% C02 for 4 days. Fluorescence intensity was determined by Acumen Cellista (TTP LabTech). The antiviral activity of each compound was calculated based on the inhibition of expression of GFP at each concentration normalized by the cell control (cells without virus infection or compound treatment).
as §3
Inhibition (%)=100−(Raw dataCPD−AverageCC)/(AverageVC−AverageCC)*100
as §4, §5

Structures can show the parent of a compound that is named as a salt.

T1 sequence (P08546 whole entry): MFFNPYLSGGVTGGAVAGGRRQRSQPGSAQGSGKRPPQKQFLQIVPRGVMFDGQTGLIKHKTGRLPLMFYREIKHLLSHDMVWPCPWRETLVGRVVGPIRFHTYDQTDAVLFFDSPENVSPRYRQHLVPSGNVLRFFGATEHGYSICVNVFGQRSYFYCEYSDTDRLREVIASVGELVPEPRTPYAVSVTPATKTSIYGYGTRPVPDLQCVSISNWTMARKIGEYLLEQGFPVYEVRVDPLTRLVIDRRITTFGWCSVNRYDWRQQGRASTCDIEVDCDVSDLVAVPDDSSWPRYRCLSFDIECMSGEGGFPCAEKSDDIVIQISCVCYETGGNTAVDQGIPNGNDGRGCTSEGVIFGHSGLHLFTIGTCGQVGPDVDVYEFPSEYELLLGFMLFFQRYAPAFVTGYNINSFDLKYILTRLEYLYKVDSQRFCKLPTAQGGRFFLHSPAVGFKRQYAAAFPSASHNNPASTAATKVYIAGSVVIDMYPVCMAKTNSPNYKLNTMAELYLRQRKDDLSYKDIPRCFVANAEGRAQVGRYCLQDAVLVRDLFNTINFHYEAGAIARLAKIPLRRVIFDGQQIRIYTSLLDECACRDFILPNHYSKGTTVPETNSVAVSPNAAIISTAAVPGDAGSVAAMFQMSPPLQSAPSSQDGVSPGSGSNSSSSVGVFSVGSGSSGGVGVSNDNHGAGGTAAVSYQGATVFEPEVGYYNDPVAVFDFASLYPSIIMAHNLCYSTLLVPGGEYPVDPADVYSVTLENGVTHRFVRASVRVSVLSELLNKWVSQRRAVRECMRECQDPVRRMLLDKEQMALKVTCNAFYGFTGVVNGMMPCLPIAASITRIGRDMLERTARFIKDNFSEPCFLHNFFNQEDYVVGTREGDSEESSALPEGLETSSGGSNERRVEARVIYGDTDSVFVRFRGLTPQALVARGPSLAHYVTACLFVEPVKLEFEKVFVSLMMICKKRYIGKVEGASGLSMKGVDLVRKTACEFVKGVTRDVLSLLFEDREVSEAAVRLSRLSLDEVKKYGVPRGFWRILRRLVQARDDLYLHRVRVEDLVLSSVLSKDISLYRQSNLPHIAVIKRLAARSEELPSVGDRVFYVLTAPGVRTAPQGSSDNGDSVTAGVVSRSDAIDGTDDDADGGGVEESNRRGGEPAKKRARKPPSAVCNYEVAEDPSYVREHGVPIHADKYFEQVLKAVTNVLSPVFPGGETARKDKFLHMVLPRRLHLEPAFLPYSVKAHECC
T2 sequence (Q12809 whole entry): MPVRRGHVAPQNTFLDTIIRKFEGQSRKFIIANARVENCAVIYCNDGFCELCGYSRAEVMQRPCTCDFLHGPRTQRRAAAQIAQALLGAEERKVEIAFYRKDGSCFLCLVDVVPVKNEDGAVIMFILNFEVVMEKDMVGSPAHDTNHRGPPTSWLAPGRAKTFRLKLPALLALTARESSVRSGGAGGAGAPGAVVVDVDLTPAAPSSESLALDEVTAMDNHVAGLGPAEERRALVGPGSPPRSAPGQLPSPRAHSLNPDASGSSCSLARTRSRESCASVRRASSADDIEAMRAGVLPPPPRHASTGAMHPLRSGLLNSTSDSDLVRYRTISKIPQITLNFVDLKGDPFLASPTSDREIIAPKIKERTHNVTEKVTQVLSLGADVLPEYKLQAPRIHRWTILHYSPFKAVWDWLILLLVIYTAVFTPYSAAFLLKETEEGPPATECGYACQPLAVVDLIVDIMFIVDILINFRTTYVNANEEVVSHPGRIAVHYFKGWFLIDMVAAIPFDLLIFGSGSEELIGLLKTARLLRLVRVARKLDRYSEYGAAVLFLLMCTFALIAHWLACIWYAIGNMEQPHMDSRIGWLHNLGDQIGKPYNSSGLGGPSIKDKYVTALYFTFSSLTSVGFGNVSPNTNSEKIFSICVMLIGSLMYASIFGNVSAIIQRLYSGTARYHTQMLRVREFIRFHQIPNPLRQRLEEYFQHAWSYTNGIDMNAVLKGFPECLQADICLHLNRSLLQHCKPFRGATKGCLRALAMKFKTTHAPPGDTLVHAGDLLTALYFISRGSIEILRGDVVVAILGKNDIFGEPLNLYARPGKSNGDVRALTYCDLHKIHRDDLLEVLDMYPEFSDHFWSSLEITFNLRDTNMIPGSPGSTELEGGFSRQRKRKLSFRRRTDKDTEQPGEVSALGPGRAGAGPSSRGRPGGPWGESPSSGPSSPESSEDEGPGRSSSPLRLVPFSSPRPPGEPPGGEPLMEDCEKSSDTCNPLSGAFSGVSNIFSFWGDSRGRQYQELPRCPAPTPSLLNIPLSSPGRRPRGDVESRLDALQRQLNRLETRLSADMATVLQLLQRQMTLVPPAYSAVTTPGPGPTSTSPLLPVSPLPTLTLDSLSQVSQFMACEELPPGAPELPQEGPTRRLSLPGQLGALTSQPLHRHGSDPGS

With `CN(CCN1CCN(c2cnc3c(cc(C(=O)NCc4ccc(Cl)cc4)c(=O)n3CC(=O)N3CC(C)(F)C3)n2)C1=O)S(C)(=O)=O` [Compound 24, N-[(4-chlorophenyl)methyl]-5-[2-(3-fluoro-3-methylazetidin-1-yl)-2-oxoethyl]-2-(3-{2-[(methanesulfonyl)(methyl)amino]ethyl}-2-oxoimidazolidin-1-yl)-6-oxo-5,6-dihydropyrido[2,3-b]pyrazine-7-carboxamide], in data set [1], the IC50 was over 1 µM.
For the molecule `CC1(F)CN(C(=O)Cn2c(=O)c(C(=O)NCc3ccc(Cl)cc3)cc3nc(N4CCN(CCC(=O)O)C4=O)cnc32)C1` [Compound 18, 3-[3-(7-{[(4-chlorophenyl)methyl]carbamoyl}-5-[2-(3-fluoro-3-methylazetidin-1-yl)-2-oxoethyl]-6-oxo-5,6-dihydropyrido[2,3-b]pyrazin-2-yl)-2-oxoimidazolidin-1-yl]propanoic acid], the results for the IC50 in data set [1] and in data set [3] were under 1 µM and over 10 µM, respectively. Also, in data set [2], the CC50 (as a rule, the concentration that lowers cell viability or growth by half) at 4 days is over 40 µM.
In turn, `CN1CCN(c2cnc3c(cc(C(=O)NCc4ccc(F)cc4)c(=O)n3CC(=O)N3CC4(CC4)C3)n2)C1=O` [Compound 10, 5-[2-(5-azaspiro[2.3]hexan-5-yl)-2-oxoethyl]-N-[(4-fluorophenyl)methyl]-2-(3-methyl-2-oxoimidazolidin-1-yl)-6-oxo-5,6-dihydropyrido[2,3-b]pyrazine-7-carboxamide] displayed an IC50 in data set [1] of under 1 µM.
With `CC1(C)CN(C(=O)Cn2c(=O)c(C(=O)NCc3ccc(Cl)cc3)cc3nc(N4CCN(CC(=O)O)C4=O)cnc32)C1` [Compound 5, [3-(7-{[(4-chlorophenyl)methyl]carbamoyl}-5-[2-(3,3-dimethylazetidin-1-yl)-2-oxoethyl]-6-oxo-5,6-dihydropyrido[2,3-b]pyrazin-2-yl)-2-oxoimidazolidin-1-yl]acetic acid], the EC50 (commonly the concentration that produces a half-maximal response) in data set [4] is over 1 µM. In data set [2], this molecule showed a CC50 at 4 days of over 40 µM. Further, the IC50 in data set [3] is over 10 µM.
With `CCOC(=O)CCN1CCN(c2cnc3c(cc(C(=O)NCc4ccc(Cl)cc4)c(=O)n3CC(=O)N3CC(C)(F)C3)n2)C1=O` [Compound 17, ethyl 3-[3-(7-{[(4-chlorophenyl)methyl]carbamoyl}-5-[2-(3-fluoro-3-methylazetidin-1-yl)-2-oxoethyl]-6-oxo-5,6-dihydropyrido[2,3-b]pyrazin-2-yl)-2-oxoimidazolidin-1-yl]propanoate], the IC50 in data set [1] was under 1 µM.
In turn, `CC1(F)CN(C(=O)Cn2c(=O)c(C(=O)NCc3ccc(Cl)cc3)cc3nc(N4CCN(CCN5CCOCC5)C4=O)cnc32)C1` [Compound 39, N-[(4-chlorophenyl)methyl]-5-[2-(3-fluoro-3-methylazetidin-1-yl)-2-oxoethyl]-2-{3-[2-(morpholin-4-yl)ethyl]-2-oxoimidazolidin-1-yl}-6-oxo-5,6-dihydropyrido[2,3-b]pyrazine-7-carboxamide] showed an IC50 in data set [1] of over 1 µM.
On to `CC1(F)CN(C(=O)Cn2c(=O)c(C(=O)NCc3ccc(Cl)cc3)cc3nc(N4CCN(CCNC(=O)CN)C4=O)cnc32)C1` [Compound 38, N-[(4-chlorophenyl)methyl]-5-[2-(3-fluoro-3-methylazetidin-1-yl)-2-oxoethyl]-2-{3-[2-(glycylamino)ethyl]-2-oxoimidazolidin-1-yl}-6-oxo-5,6-dihydropyrido[2,3-b]pyrazine-7-carboxamide-hydrochloride salt], for which the IC50 in data set [1] was under 1 µM.
Take `CNCCN1CCN(c2cnc3c(cc(C(=O)NCc4ccc(Cl)cc4)c(=O)n3CC(=O)N3CC(C)(F)C3)n2)C1=O` [Compound 23, N-[(4-chlorophenyl)methyl]-5-[2-(3-fluoro-3-methylazetidin-1-yl)-2-oxoethyl]-2-{3-[2-(methylamino)ethyl]-2-oxoimidazolidin-1-yl}-6-oxo-5,6-dihydropyrido[2,3-b]pyrazine-7-carboxamide-hydrogen chloride]: the IC50 in data set [1] was under 1 µM.
In data set [1], `CN1CCN(c2cnc3c(cc(C(=O)NCc4ccc(C#N)cc4)c(=O)n3CC(=O)N3CC4(CC4)C3)n2)C1=O` [Compound 11, 5-[2-(5-azaspiro[2.3]hexan-5-yl)-2-oxoethyl]-N-[(4-cyanophenyl)methyl]-2-(3-methyl-2-oxoimidazolidin-1-yl)-6-oxo-5,6-dihydropyrido[2,3-b]pyrazine-7-carboxamide] displayed an IC50 of under 1 µM.

Source of the values: patent publication US20230136702A1, “Inhibitors of Human Herpesviruses” (The Governors of the University of Alberta, priority 2020, published 2023).
